Reference: paper PMC7925099, “Identification of an Antiretroviral Small Molecule That Appears To Be a Host-Targeting Inhibitor of HIV-1 Assembly” (Journal of Virology, 2021)

Experiments:
[1] = system: HIV-1 LAI pro– Δenv (pseudotyped with HIV-1 NL4-3 Env); assay: MT-2 acute infection assay (VLP, intracellular Gag, assembly intermediates); conditions: MT-2 cells
Protocol: For Fig. 3B, culture supernatants were collected at 48 h, and virus was pelleted by adding 75 μl of 17% PEG 6000–0.8 M NaCl–PBS to 75 μl of medium from the assay in a 96-well V-bottom polypropylene plate. PEG and media were incubated on ice for 2 h or overnight at 4°C. Virus was pelleted at 1,847 × g for 30 min at 4°C in the plate in an Allegra centrifuge (Beckman), and the pellet was resuspended in 50 μl of loading buffer with dithiothreitol for analysis by WB with αGag. For Fig. 4, culture supernatants were collected at 48 h postinfection and filtered through a 0.45-μm PES syringe filter to remove any remaining cells. Virus-like particles were centrifuged through a 30% (wt/vol) sucrose-PBS cushion at 130,000 × g, 30 min, and 4°C in an SW55Ti rotor (Beckman), and the virus pellet was harvested for analysis by WB with αGag.
MT-2 cells were diluted to 2 × 10^6 cells/ml with complete RPMI and bulk infected at an MOI of 1 for 2 h at 37°C. Compound was diluted 100-fold to the final required concentration with DMSO. The compound dilutions and DMSO-only controls were then further diluted 50-fold with complete RPMI, and 1 ml of the dilutions was added per well in a 12-well plate. Bulk-infected cells were then washed and adjusted to 0.5 × 10^6 cells/ml, and 1 ml of infected cells was added to each well containing diluted compound or DMSO. At 48 h, the medium was collected for virus pelleting as described above, and the cells were washed and lysed (see “Cell lysis” below).
MT-2 cells were collected and washed three times by pelleting at 200 × g for 5 min at 4°C in an Allegra centrifuge (Beckman) and resuspending cells in ice-cold PBS. Cell pellets were lysed with 250 μl lysis buffer (20 mM HEPES [pH 7.9], 14 mM potassium acetate, 1 mM MgCl2, 0.3% NP-40), followed by shearing 20× with a 20-gauge needle. Cell lysate was then clarified 200 × g for 10 min at 4°C in an Allegra centrifuge (Beckman). The supernatant was transferred to a fresh tube and further clarified by centrifugation at 18,000 × g for 10 min at 4°C in a Microfuge (Beckman), and the supernatant was transferred to a fresh tube.
To prepare gradients, 10, 15, 40, 50, 60, 70, and 80% (wt/vol) sucrose solutions were prepared with water, and then each was diluted 1/10 with a 10× stock of the lysis buffer used to harvest cells (see “Cell lysis”). For each gradient, ∼100 μl of cell lysate (∼100 μg of total protein) was layered on a 5-ml step gradient containing equivalent layers of each diluted sucrose solution prepared and subjected to velocity sedimentation in a Beckman MLS-50 rotor 217,000 × g for 45 min at 4°C. Gradients were fractionated from top to bottom, and pelleted material was harvested for WB. Aliquots of fractions and pellet were analyzed by SDS-PAGE, followed by WB with αGag.

[2] = system: HIV-1 (chronically infected H9 T cells, H9-HIV); assay: Inhibition of HIV-1 late events: virus production (αGag WB of pelleted virus); format: cell-based; conditions: Human immunodeficiency virus 1, T-cell
MT-2 cells [3] = system: MT-2 cells
Protocol: (§1) For each viral inhibition assay, a cytotoxicity assay was performed in parallel on uninfected cells by adding 1/10 volume of alamarBlue (Thermo Fisher, Waltham, MA; DAL1199) to the plates, followed by thorough mixing. AlamarBlue-treated plates were incubated for 2 to 3 h at 37°C (the timing was optimized for the linear signal), mixed well, and read using a fluorescence plate reader with 560 nm and 590 nm as the excitation and emission settings, respectively (Synergy H1; BioTek Instruments, Inc.).
(§2) EC50 and CC50 values were determined in Excel using four-parameter logistic regression analysis of dose-response data generated from the viral inhibition or cytotoxicity assays, respectively. […] Average EC50 and CC50 values were calculated using the geometric mean and average values were reported with the geometric standard deviation (GSD).

[4] = Cytotoxicity assay on SupT1.CCR5 cells; conditions: human, SupT1.CCR5 cells (uninfected)
Protocol: as §1, §2

FIV 34TF10 = assay: FIV inhibition assay (spreading infection, RT activity); format: cell-based, feline immunodeficiency virus
Protocol: G355-5 cells were transfected in six-well plates, and each well was transfected with 2 μg per well of FIV 34TF10 ORFA+ proviral plasmid. At 24 h posttransfection, the cells were washed, and the medium was replaced with 4 ml of complete McCoy 5A. At 144 h posttransfection, the medium was filtered using a 0.45-μm syringe filter, aliquoted, and stored at −80°C. The reverse transcriptase (RT) activity in media from FIV or mock-transfected cells was estimated using SG-PERT ([94]). A set of recombinant RT standards (EMD Millipore, Molsheim, France; catalog no. 382129) ranging from 5.12E3 to 5.12E9 nU/ml was used to estimate the nU/ml of RT activity in the FIV stock.
Inhibition of FIV spreading infection was assayed using G355-5 cells, seeded on the prior day at 8,000 cells/well in a 96-well plate.

HIV-1 NL4-3 RLuc = assay: MT-2 spreading infection assay (inhibition of HIV-1 replication); conditions: for EC50: Human immunodeficiency virus 1, NL43, T-cell, 96 h, read-out: EC50 for inhibition of HIV-1 replication; for SI (CC50/EC50): from average values
Protocol: Inhibition of HIV-1 viral replication was assayed in a spreading infection using MT-2 cells and NL4-3 RLuc reporter virus. For dose-response curves, compounds were initially diluted with DMSO to 100-fold the starting concentration in a 96-well plate and subjected to a series of 3-fold dilutions in DMSO for a total of eight or nine dilutions. If a single compound concentration was tested, the compound was diluted to 100-fold the desired concentration in DMSO. Compounds were then diluted 50-fold with infection media prepared by diluting NL4-3 RLuc virus stock to 400 IU/100 μl with complete RPMI. Then, 100 μl of 50-fold-diluted compound was transferred to 20,000 MT-2 cells that were preseeded in 96-well plates in 100 μl of complete RPMI for a final volume of 200 μl, followed by incubation at 37°C for 96 h. The final MOI in infected plates was 0.02, and the final DMSO concentration in all wells was 1%. All assays were run with three replicates. For each replicate, one well received DMSO only, and one well received medium only for normalization and background correction. […] Plates were read on a luminescence plate reader (Synergy H1; BioTek Instruments, Inc.).
as §2

in vitro [5] = format: cell-based; conditions: human
[6] = system: influenza A virus WSN/33 (H1N1) (FLUV); format: cell-based
[7] = system: HIV-1 (chronically infected H9 T cells, H9-HIV); assay: Inhibition of HIV-1 late events: infectious virus production by H9-HIV cells; format: cell-based; conditions: Human immunodeficiency virus 1, 48 h, titered on TZM-bl cells, read-out: EC50INF (inhibition of infectivity of culture supernatant)
Protocol: For these experiments, we used H9-HIV, a chronically infected H9 T cell line. Compounds were diluted as described under MT-2 spreading infection above. […] To measure inhibition of virus production (Fig. 3B, blue graph and blot), PEG pelleted virus (harvested as described in “Virus pelleting” above) was analyzed by WB with αGag.

in vitro [8] = conditions: cat
Protocol: as §1, §2

in vitro [9] = conditions: human, CC50
Protocol: as §1, §2

HIV-1 NL4-3 [10] = assay: PBMC spreading infection assay; format: cell-based
Protocol: Thawed, unstimulated PBMCs (BenTech, Seattle, WA) were pelleted by centrifugation 228 × g for 8 min in an Allegra centrifuge (Beckman, Brea, CA). Pellets were resuspended in activation medium containing RPMI supplemented with 21 ng/ml human interleukin-2 (IL-2; […] Remel, San Diego, CA; R30852801), 10% FBS, and 1% penicillin-streptomycin, at a density of 2 × 10^6 cells/ml. After a 3-day incubation, the cells were collected and resuspended in RPMI with 20% FBS and 10% DMSO and then frozen as 50 × 10^6 cells per vial. […] Compound dilutions were prepared in complete PBMC medium as described above, but without virus, and 100 μl of diluted compound was transferred to 96-well U-bottom plates. Bulk-infected cells were pelleted and resuspended in complete PBMC medium at 1 × 10^6 cells/ml, and 100 μl of cell suspension was transferred to each well at 100,000 cells per well with diluted compound. After 96 h, the medium was collected for relative infectivity measurements as for the SupT1.CCR5 spreading infection assay.

HIV-1 NL4-3 [11] = format: cell-based; conditions: MT-2 cells, 37 weeks of selection
PBMCs = conditions: human
Protocol: as §1, §2

MT-2 cells [12] = assay: Cytotoxicity assay (alamarBlue) on uninfected MT-2 T cells; conditions: uninfected MT-2 cells
Protocol: as §1, §2

For `COc1cc(C)c(/C=C/C2NCCc3cc(OCc4ccccc4)c(OC)cc32)cc1OCc1ccccc1` (stereo not drawn) [PAV-117], the “∼EC70 (treatment concentration)” value ([1]; 48 h treatment) was roughly 0.25 nM, the “steady-state levels of actin and GAPDH” value ([1]; 48 h) was “minimally affected” and the “steady-state level of the ∼500S intermediate as a percentage of total Gag” value ([1]; 48 h, velocity sedimentation) was “dose-dependent decrease”. The “VLP release into the supernatant” value ([1]; protease-deficient provirus, 48 h) was “dose-dependent reduction”, the “steady-state intracellular p55 Gag levels” value ([1]; highest PAV-117 concentration tested, 48 h) was “some reduction” and the inhibition at 0.002 µM ([2]; 2 nM, H9-HIV, WB of virus pellets, read-out: % inhibition of virus production (relative to DMSO)) was 2%. The inhibition at 0.005 µM ([2]; 5 nM, H9-HIV, WB of virus pellets, read-out: % inhibition of virus production (relative to DMSO)) was 7%, the inhibition at 0.016 µM ([2]; 16 nM, H9-HIV, WB of virus pellets, read-out: % inhibition of virus production (relative to DMSO)) was 7% and the inhibition at 0.049 µM ([2]; 49 nM, H9-HIV, WB of virus pellets, read-out: % inhibition of virus production (relative to DMSO)) was 31%. The inhibition at 0.148 µM ([2]; 148 nM, H9-HIV, WB of virus pellets, read-out: % inhibition of virus production (relative to DMSO)) was 48%, the inhibition at 0.444 µM ([2]; 444 nM, H9-HIV, WB of virus pellets, read-out: % inhibition of virus production (relative to DMSO)) was 86% and the inhibition at 1.333 µM ([2]; 1333 nM, H9-HIV, WB of virus pellets, read-out: % inhibition of virus production (relative to DMSO)) was 92%. For the same compound, the inhibition at 4 µM ([2]; 4000 nM, H9-HIV, WB of virus pellets, read-out: % inhibition of virus production (relative to DMSO)) was 96%, the inhibition at 10 µM ([2]; 10000 nM, H9-HIV, WB of virus pellets, read-out: % inhibition of virus production (relative to DMSO)) was 92% and the EC50 ([2]; H9-HIV cells, 48 h, αGag WB, read-out: EC50VLP (inhibition of virus production, p24 Gag in virus pellets)) was 113 nM. For the same compound, the “CC50 (μM)” value (MT-2 cells [3]) was 1.4 ×/÷ 1.5 μM, the CC50 (MT-2 cells [3]; human) was 1100 nM and the CC50 [4] was 1100 nM. The EC50 (FIV 34TF10; Feline immunodeficiency virus, feline G355-5 cells, FIV 34TF10, 144 h, RT activity, read-out: EC50 for inhibition of FIV replication) was 595 nM, the “fold by which FIV EC50 is lower than CC50 in G355-5 cells” value (FIV 34TF10; G355-5 cells) was less than 2 fold and the EC50 (HIV-1 NL4-3 RLuc) was 48 nM. The “SI (CC50/EC50)” value (HIV-1 NL4-3 RLuc; MT-2 cells) was 14, the “selectivity index (CC50/EC50)” value (HIV-1 NL4-3 RLuc; MT-2 cells, from the shown dose-response curve) was 21 and the CC50 (in vitro [5]) was 1600 nM. The “activity against FLUV (infectious titer)” value [6] was “not active”, the EC50 [7] was 104 nM and the CC50 (in vitro [8]) was 1100 nM. It also gave a CC50 (in vitro [9]) of 1000 nM.
For `COc1cc(C)c(/C=C/C2NCCc3cc(OCc4ccccc4)c(OC)cc32)cc1OC` (stereo not drawn) [PAV-206], the “CC50 (μM)” value (MT-2 cells [3]) was 2.2 ×/÷ 1.4 μM, the EC50 (HIV-1 NL4-3 RLuc) was 34 nM and the “SI (CC50/EC50)” value (HIV-1 NL4-3 RLuc; MT-2 cells) was 61. For the same compound, the selectivity index (HIV-1 NL4-3 [10]; HIV-1-infected PBMCs) was 48, the EC50 (HIV-1 NL4-3 [10]; Human immunodeficiency virus 1, NL43, PBMC, PHA-activated PBMCs, HIV-1 NL4-3, MOI 0.008, 96 h) was 75 nM and the “resistance level reached: compound concentration allowing virus replication, fold higher than the EC50” value (HIV-1 NL4-3 [11]) was 8 fold. For the same compound, the CC50PBMC (PBMCs) was 3591 nM and the CC50MT-2 (MT-2 cells [12]) was 2811 nM.
